For 2 compounds, mortality results are on record in patent US12484584B2, “Methods and uses of a mixture comprising alpha-cypermethrin and dinotefuran for controlling bed bugs” (BASF AGRO B.V., priority 2020, dated 2025).

What is called mortality is the share of the test organisms that died.

This assay has as its system C. lectularius. The assay can be described thus: residual contact assay in treated glass vials, with Colby synergy analysis. It counts as in vivo. The note with it: Cimex lectularius, 72 h; for mortality at 1 ppm: 1 ppm alpha-cypermethrin; for mortality at 2 ppm: 2 ppm dinotefuran; for mortality at 4 ppm: 4 ppm dinotefuran; for mortality at 6 ppm: 6 ppm dinotefuran; for mortality at 8 ppm: 8 ppm dinotefuran. The procedure:
Glass vials (20 mL scintillation) were treated with 445 μL of varying concentrations of α-cypermethrin dissolved in acetone, respectively dinotefuran or mixtures of α-cypermethrin and dinotefuran in the indicated ratios. Vials were turned on their sides and placed on an automated roller table. The vials were rolled (6 rpm) uncapped to allow an even coating of the treatment. After rolling, vials were allowed to completely dry for at least an hour. Each treatment was replicated five times. Approximately six bed bugs, Cimex lectularius, were placed into each vial and were exposed to treatments at room temperature for the duration of the study.
After dose response testing, assays combining two active ingredients were conducted using the same method described above. The rates used in the combination treatments for each active ingredient, α-cypermethrin and dinotefuran, were the same concentrations used when they were tested independently.
When applied in combination, the toxicological interaction between two compounds is classified based on the resultant impact on the observed effect. The interaction is termed antagonistic when the observed effect is less than the Colby expected mortality based on the responses of the two compounds applied independently at the same doses. When the observed effect of two compounds applied in combination is equal to that of the Colby expected mortality based on the responses of the two compounds applied independently, the relationship is described as additive. Finally, a synergistic interaction means that the effect of the two compounds applied in combination is greater than the Colby expected mortality based on the responses of the two compounds applied independently at the same doses.
Ataxia+mortality data at 48 hours were used to determine whether there was a synergistic effect in the combined use of α-cypermethrin and dinotefuran.
Abbott's correction for control mortality and the Colby method for testing synergy were used to analyze combination data. The method is as follows: Abbott's corrected mortality per observation (at 3 DAE)=[(% observed mortality−% control mortality)/(100%−% control mortality)]×100. Colby's expected mortality per combination observation=% mortality (A)+% mortality (B)−(% mortality (A)×% mortality (B))/100. Synergy ratio=% observed mortality/% Colby expected mortality.
Additive interactions have synergy ratios equal to 1, antagonistic interactions have synergy ratios of less than 1, and synergistic interactions have synergy ratios of greater than 1.

Setting [1] is: corrected for control mortality, read-out: Abbott's CM (Abbott's corrected mortality).
Where [2] appears, read: residual contact, read-out: Mortality (%) @ 72 h.

Where two headings read alike, the source gives them in different places.

`CC1(C)C(C=C(Cl)Cl)C1C(=O)OC(C#N)c1cccc(Oc2ccccc2)c1` (racemic) [alpha-cypermethrin, racemate comprising (R)-α-cyano-3-phenoxybenzyl (1S, 3S)-3-(2,2-dichlorovinyl)-2,2-dimethylcyclopropanecarboxylate; (S)-α-cyano-3-phenoxybenzyl (1R, 3R)-3-(2,2-dichlorovinyl)-2,2-dimethylcyclopropanecarboxylate]: the mortality at 1 ppm came out at 24.1% under setting [1] and 26.7% under setting [2].
As for `CNC(=N[N+](=O)[O-])NCC1CCOC1` (racemic) [dinotefuran, (RS)-1-methyl-2-nitro-3-(tetrahydro-3-furylmethyl) guanidine], under setting [1], the mortality at 2 ppm was 3.4%, the mortality at 4 ppm turned out to be 3.4%, the mortality at 6 ppm stood at 3.4% and the mortality at 8 ppm is 3.4%. For the same compound, under setting [2], the mortality at 2 ppm came out at 6.7%, the mortality at 4 ppm amounted to 6.7%, the mortality at 6 ppm is 6.7% and the mortality at 8 ppm stood at 6.7%.
